Measurements as given in ChEMBL document CHEMBL2176887, “Chemokine receptor antagonists” (J Med Chem, 2012).
pEC50, pIC50, pKi: −log10 of the molar value. Values belong to the compound of their own block, whether it stands above or below them.

Legend:
Thromboxane A2 receptor = biological target: T1, Thromboxane A2 receptor (Homo sapiens, UniProt P21731)
T1 sequence (P21731 whole entry): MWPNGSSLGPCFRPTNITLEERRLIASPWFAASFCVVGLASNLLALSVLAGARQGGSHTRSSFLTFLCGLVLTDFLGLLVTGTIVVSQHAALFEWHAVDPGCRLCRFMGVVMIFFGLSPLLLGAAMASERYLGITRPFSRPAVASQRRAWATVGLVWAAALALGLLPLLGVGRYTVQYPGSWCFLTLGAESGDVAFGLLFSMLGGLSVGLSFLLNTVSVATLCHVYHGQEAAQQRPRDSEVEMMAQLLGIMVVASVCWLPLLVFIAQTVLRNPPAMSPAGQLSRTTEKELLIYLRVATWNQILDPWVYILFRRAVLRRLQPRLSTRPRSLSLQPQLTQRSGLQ
Description: Binding affinity to TXA2 receptor receptor

[1] = biological target: T2, C-X-C chemokine receptor type 1 (Homo sapiens, UniProt P25024)
T2 sequence (P25024 whole entry): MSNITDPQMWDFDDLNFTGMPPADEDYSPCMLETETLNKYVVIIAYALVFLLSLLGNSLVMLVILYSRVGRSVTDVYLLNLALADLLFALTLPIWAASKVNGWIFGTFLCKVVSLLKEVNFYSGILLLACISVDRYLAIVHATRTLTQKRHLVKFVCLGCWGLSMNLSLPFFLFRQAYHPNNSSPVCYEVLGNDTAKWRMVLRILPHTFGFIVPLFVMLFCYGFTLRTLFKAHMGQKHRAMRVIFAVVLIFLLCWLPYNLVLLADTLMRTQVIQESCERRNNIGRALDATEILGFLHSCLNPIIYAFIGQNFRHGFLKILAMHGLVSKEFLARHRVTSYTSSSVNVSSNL
Description: Binding affinity to CXCR1

[2] = biological target: T3, C-X-C chemokine receptor type 2 (Homo sapiens, UniProt P25025); test: Antagonist activity at CXCR2 assessed as inhibition of neutrophil CD11b up-regulation; format: functional
T3 sequence (P25025 whole entry): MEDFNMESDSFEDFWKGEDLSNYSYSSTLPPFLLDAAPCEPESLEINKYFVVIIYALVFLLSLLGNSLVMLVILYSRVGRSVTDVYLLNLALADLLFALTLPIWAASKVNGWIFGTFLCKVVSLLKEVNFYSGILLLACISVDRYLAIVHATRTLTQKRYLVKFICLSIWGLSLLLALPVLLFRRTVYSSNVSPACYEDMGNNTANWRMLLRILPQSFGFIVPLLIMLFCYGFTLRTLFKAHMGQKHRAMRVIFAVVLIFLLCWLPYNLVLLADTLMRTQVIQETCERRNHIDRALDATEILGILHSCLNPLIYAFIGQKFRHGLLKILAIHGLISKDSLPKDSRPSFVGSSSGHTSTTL

[3] = biological target: T3, C-X-C chemokine receptor type 2
Description: Binding affinity to CXCR2

physchem = details: octanol/water
Description: Lipophilicity, log P of the compound

[4] = biological target: T4, C-C chemokine receptor type 4 (Homo sapiens, UniProt P51679); test: Binding affinity to CCR4
T4 sequence (P51679 whole entry): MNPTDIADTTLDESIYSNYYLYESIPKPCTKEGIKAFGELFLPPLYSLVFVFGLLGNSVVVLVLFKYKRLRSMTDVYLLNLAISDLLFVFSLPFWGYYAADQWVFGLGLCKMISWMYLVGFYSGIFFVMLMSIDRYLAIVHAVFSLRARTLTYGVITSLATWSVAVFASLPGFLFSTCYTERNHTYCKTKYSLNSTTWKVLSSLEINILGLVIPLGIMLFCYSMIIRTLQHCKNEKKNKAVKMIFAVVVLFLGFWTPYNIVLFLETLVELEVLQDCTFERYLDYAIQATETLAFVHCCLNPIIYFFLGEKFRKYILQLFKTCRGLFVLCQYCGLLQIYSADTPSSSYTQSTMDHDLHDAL

[5] = Oral bioavailability in beagle dog; format: ADME, organism-based, Canis lupus familiaris; details: in vivo
[6] = Oral bioavailability in rat; format: ADME, organism-based; details: in vivo
[7] = Half life in beagle dog; format: ADME, organism-based, Canis lupus familiaris; details: in vivo
[8] = Half life in rat; format: ADME, organism-based; details: in vivo
[9] = biological target: T5, C-C chemokine receptor type 1 (Homo sapiens, UniProt P32246); test: Antagonist activity at CCR1; format: functional
T5 sequence (P32246 whole entry): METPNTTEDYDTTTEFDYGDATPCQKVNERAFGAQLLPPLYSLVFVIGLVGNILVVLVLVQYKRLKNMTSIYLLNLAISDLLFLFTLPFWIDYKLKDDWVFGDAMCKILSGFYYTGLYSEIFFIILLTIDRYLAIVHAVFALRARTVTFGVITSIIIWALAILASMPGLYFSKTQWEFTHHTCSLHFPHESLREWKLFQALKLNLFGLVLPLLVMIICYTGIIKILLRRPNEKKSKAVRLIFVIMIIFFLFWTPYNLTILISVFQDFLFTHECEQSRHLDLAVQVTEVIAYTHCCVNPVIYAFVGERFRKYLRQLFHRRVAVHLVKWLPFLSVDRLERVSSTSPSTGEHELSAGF

[10] = tested on: Human immunodeficiency virus 1; test: Antiviral activity against CCR5-tropic HIV1; format: functional
[11] = biological target: T6, Type-1 angiotensin II receptor (Homo sapiens, UniProt P30556)
T6 sequence (P30556 whole entry): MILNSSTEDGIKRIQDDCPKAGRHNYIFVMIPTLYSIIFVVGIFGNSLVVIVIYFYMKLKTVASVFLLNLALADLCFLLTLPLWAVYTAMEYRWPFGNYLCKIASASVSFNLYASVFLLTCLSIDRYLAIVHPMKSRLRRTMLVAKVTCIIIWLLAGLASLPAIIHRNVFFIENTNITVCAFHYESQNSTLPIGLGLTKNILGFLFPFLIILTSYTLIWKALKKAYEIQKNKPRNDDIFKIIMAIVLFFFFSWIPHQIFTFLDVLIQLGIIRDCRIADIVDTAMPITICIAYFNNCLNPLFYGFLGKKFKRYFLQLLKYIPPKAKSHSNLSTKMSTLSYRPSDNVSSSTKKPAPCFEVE
Description: Binding affinity to AT1 receptor

[12] = biological target: T5, C-C chemokine receptor type 1
[13] = biological target: C-C chemokine receptor type 5 (Homo sapiens, UniProt P51681)
[14] = tested on: Human immunodeficiency virus 1; test: Antiviral activity against Human immunodeficiency virus 1 clinical isolate; format: functional, organism-based
[15] = Half life in human; format: ADME, organism-based; details: in vivo
[16] = octanol/water
Description: Lipophilicity, log P of the compound

Sequence of C-C chemokine receptor type 5 (P51681 whole entry): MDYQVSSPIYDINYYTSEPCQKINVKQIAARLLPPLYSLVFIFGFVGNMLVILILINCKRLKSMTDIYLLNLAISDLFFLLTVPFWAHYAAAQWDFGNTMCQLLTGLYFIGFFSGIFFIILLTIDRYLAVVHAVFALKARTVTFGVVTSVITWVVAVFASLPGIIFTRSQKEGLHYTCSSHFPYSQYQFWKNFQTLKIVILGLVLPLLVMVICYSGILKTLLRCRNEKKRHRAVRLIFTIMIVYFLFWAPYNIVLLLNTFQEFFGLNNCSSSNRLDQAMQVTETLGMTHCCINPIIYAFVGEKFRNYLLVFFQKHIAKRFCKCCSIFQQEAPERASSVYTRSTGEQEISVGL

SMILES: CN(C)C/C=C1\c2ccccc2COc2ccc(CC(=O)O)cc21
pKi (Thromboxane A2 receptor): < 6.00

SMILES: O=C(Nc1ccc(Cl)c(S(=O)(=O)N2CCNCC2)c1O)Nc1cccc(F)c1Cl [ELUBRIXIN]
pIC50 [1]: < 5.00
pIC50 [2]: 6.58
pIC50 [3]: 8.29
logP (physchem): 4.2

SMILES: COc1cccc2c1c(NS(=O)(=O)c1ccc(Cl)s1)nn2Cc1cccc(NC(=O)CO)c1 [GSK-2239633]
pKi [4]: 8.00
bioavailability [5]: 97%
bioavailability [6]: 85%
half-life [7]: 2.6 h
half-life [8]: 2.5 h

SMILES: Cc1noc(NS(=O)(=O)c2ccccc2-c2ccc(-c3ncco3)cc2)c1C
pKi [11]: < 5.00

SMILES: CCCCOCCOc1ccc(-c2ccc3c(c2)/C=C(/C(=O)Nc2ccc([S@@+]([O-])Cc4cncn4CCC)cc2)CCCN3CC(C)C)cc1 [CENICRIVIROC]
pEC50 [14]: 10.21
half-life [15]: 35 h
logP [16]: 10.2

SMILES: CC(C)(C)c1ccc(S(=O)(=O)Nc2ccc(Cl)cc2C(=O)c2cc[n+]([O-])cc2)cc1 [VERCIRNON]
logP (physchem): 4.7

The next lines start with the values.

pIC50 [9]: 8.30
SMILES: CO[C@@H]1COCC[C@@H]1NC1CC[C@@](C(=O)N2CCc3ncc(C(F)(F)F)cc3C2)(C(C)C)C1 (some centres undefined)

logP (physchem): 4.4
SMILES: Cc1nnc(C(C)C)n1[C@@H]1C[C@H]2CC[C@@H](C1)N2CC[C@H](NC(=O)C1CCC(F)(F)CC1)c1ccccc1 [MARAVIROC]

IC90 [10]: 2 nM
SMILES: Cc1nnc(C(C)C)n1[C@H]1C[C@H]2CC[C@@H](C1)N2CC[C@H](NC(=O)C1CCC(F)(F)CC1)c1ccccc1 [MARAVIROC]

pKi [12]: 8.30
logP (physchem): 1.9
SMILES: CC(=O)Nc1ccc(O)cc1OC[C@@](C)(O)CNC1CCN(Cc2ccc(Cl)cc2)CC1 [AZD4818]

pIC50 [13]: 8.51
logP (physchem): 3.9
SMILES: CCO[C@@H]1Cc2cc(C(F)(F)F)ccc2[C@H]1N1CCN(C2(C)CCN(C(=O)c3c(C)ncnc3C)CC2)C[C@@H]1C [INCB-9471]

logP (physchem): 3.6
SMILES: COC[C@@H](c1ccc(C(F)(F)F)cc1)N1CCN(C2(C)CCN(C(=O)c3c(C)ncnc3C)CC2)C[C@@H]1C [VICRIVIROC]

logP (physchem): 3.8
SMILES: Cc1ccc(S(=O)(=O)NC(=O)N2CCC(N3CCC(Oc4ccc(Cl)c(Cl)c4)CC3)CC2)cc1
